What was measured:
Staphylococcus aureus = experiment: disinfection at low concentration in aqueous solution; type: cell-based; conditions: 25 mg/L in aqueous solution; dependent on pH
Text: In various embodiments provided herein, the N-halamine is 1-chloro-2,2,5,5-tetramethyl-4-imidazolidinone (“compound I”). Compound I is a stable N-halamine both in aqueous solution and in the solid state as long as it is not exposed to direct sunlight or extensive UV radiation. At ambient temperature, the hydrolysis equilibrium constant of compound I to produce its precursor 2,2,5,5-tetramethyl-4-imidazolidinone and “free chlorine” (HOCl) is lower than 10^−11. At low concentration in aqueous solution (e.g., 25 mg/L), long contact times (typically between 1-10 hours, dependent on pH) are required to obtain a 6-log reduction of Staphylococcus aureus. […] Furthermore, compound I is inexpensive and may be prepared according to the procedures described in U.S. Pat. No. 5,057,612, U.S. Pat. No. 5,126,057, or Tsao et al. (“Novel N-halamine Disinfectant Compounds,” Biotechnol. Prog., 1991; 7:60), the disclosures of all which are incorporated herein in their entirety.

[1] = storage (shelf-life) stability of oxidative chlorine on impregnated fabrics, iodometric/thiosulfate titration; type: physicochemical; conditions: for Chlorine loading, dark storage / Chlorine loading, fluorescent light: 22 g/m^2 fabric, 22° C.
Method: A modified iodometric/thiosulfate titration procedure was used to determine the active chlorine content on the fabrics impregnated with compound I (see, for example, Worley et al., “Novel N-halamine Siloxane Monomers and Polymers for Preparing Biocidal Coatings,” Surf Coat. Int., Part B, 2005; 88:93, herein incorporated by reference in its entirety). Cl^+% was calculated by the equation given below, where Cl^+% is the weight percent of the oxidative chlorine, N and V are
[formula] the normality (equiv/L) and volume (L) of the Na2S2O3 (titrant), respectively, and W is the weight of the polypropylene fabric in grams.
Storage or shelf-life stability of the impregnated 22 g/m^2 fabrics was evaluated in the instant example. Fabric samples were stored in a cabinet (e.g., a dark environment) without exposure to fluorescent light and on the laboratory bench (e.g., under fluorescent light) at room temperature. The stability of the chlorine content over time was measured for 24 weeks. The stabilities of the fabrics impregnated with compound I with a basis weight of 22 g/m^2 were determined at 22° C. by measuring the amount of remaining chlorine on the fabrics by using the standard iodometric/thiosulfate titration procedure.

[2] = tested on: Escherichia coli O157:H7 ATCC 43895; experiment: sandwich test, gauze pads (wound dressing); type: cell-based; conditions: chlorine loading 0.47 ± 0.01 wt %, inoculum 5.86 logs
Method: (§1) Compound I at a concentration of 1% by weight was dissolved in ethyl alcohol at room temperature. Non-stick gauze pads sized 20.3×7.6 cm (8×3 inch) obtained from Curad® were soaked in the solution for 10 minutes. The gauze pads were then passed through a laboratory wringer (Birch Brothers Southern, Waxhaw, N.C., U.S.A.) at low pressure settings. This procedure was followed by drying the samples at room temperature overnight. The titrated oxidative chlorine loading of the gauze pads was 0.47±0.01 wt %.
(§2) Gauze pads impregnated with compound I and non-impregnated sterile gauze pads (used as received as controls) were challenged with Staphylococcus aureus (S. aureus, ATCC 6538), Escherichia coli(E. coli O157:H7, ATCC 43895), and Pseudomonas aeruginosa (P. aeruginosa, ATCC 27853). The bacteria were suspended in 100 μM phosphate buffer (pH 7) to produce a suspension of known population (colony forming units, CFU/mL). Then, an aliquot of 25 μL of this suspension was placed in the center of a 2.54×2.54 cm^2 gauze swatch, and a second identical swatch was placed on top. Both swatches were covered by a sterile weight to ensure sufficient contact with the bacteria. After predetermined contact times, samples were quenched by 5.0 mL of sterile 0.02 N sodium thiosulfate solution to neutralize the oxidative chlorine and thus terminate the disinfection action. Samples were vortexed for 2 minutes, and then serial dilutions were prepared using pH 7, 100 μM phosphate buffer and plated on Trypticase soy agar plates. After the plates were incubated at 37° C. for 24 hours, viable bacterial colonies were counted for the biocidal efficacy analysis.

[3] = tested on: Pseudomonas aeruginosa ATCC 27853; experiment: sandwich test, gauze pads (wound dressing); type: cell-based; conditions: chlorine loading 0.47 ± 0.01 wt %, inoculum 6.12 logs
Method: as §1, §2

[4] = tested on: Staphylococcus aureus ATCC 6538; experiment: sandwich test, gauze pads (wound dressing); type: cell-based; conditions: chlorine loading 0.47 ± 0.01 wt %, inoculum 6.00 logs
Method: as §1, §2

[5] = tested on: Escherichia coli O157:H7 ATCC 43895; experiment: sandwich test, wet wipes; type: cell-based; conditions: contact time 1 min, inoculum 6.50
Method: In the first test, CVS brand commercial wet wipes were first dried at 45° C. for 1 hour before impregnation with solutions of compound I. Different concentrations (wt %) of compound I were prepared in ethyl alcohol, and the wipes were soaked in the solutions for 5 minutes. After soaking in the solutions, each wipe was mounted between two filter papers, and a weight of 290 grams was placed uniformly over the stack. At the end of a 30 second period, the wet wipes were placed in closed vials to prevent further loss of solvent.
For antibacterial testing, CVS brand commercial wipes were used as received as controls and wipes impregnated with compound I at a concentration of 1.0 wt % in ethyl alcohol were prepared as described above. […] After the plates were incubated at 37° C. for 24 hours, viable bacterial colonies were counted for the biocidal efficacy analysis.

[6] = contact time 1 min, listed as compound I

CC1(C)NC(=O)C(C)(C)N1Cl [Compound I, 1-chloro-2,2,5,5-tetramethyl-4-imidazolidinone]
contact time required to obtain a 6-log reduction (Staphylococcus aureus): 1-10 hours | Chlorine loading, dark storage ([1]; 2 weeks): 0.37 wt % Cl^+ | Chlorine loading, fluorescent light ([1]; 2 weeks): 0.05 wt % Cl^+ | Chlorine loading, dark storage ([1]; 3 weeks): 0.40 wt % Cl^+ | Chlorine loading, fluorescent light ([1]; 3 weeks): 0 wt % Cl^+ | Chlorine loading, dark storage ([1]; 5 weeks): 0.37 wt % Cl^+ | Chlorine loading, fluorescent light ([1]; 5 weeks): 0 wt % Cl^+ | Chlorine loading, dark storage ([1]; 8 weeks): 0.40 wt % Cl^+ | Chlorine loading, fluorescent light ([1]; 8 weeks): 0 wt % Cl^+ | Chlorine loading, dark storage ([1]; 12 weeks): 0.42 wt % Cl^+ | Chlorine loading, fluorescent light ([1]; 12 weeks): 0 wt % Cl^+ | Chlorine loading, dark storage ([1]; 24 weeks): 0.41 wt % Cl^+ | Chlorine loading, fluorescent light ([1]; 24 weeks): 0 wt % Cl^+ | Chlorine loading, dark storage ([1]; Initial): 0.36 wt % Cl^+ | Chlorine loading, fluorescent light ([1]; Initial): 0.40 wt % Cl^+ | chlorine loss on storage ([1]; fabrics exposed to fluorescent light, after 3 weeks of exposure): the remaining chlorine was lost | chlorine loss on storage ([1]; fabrics exposed to fluorescent light, within a 2 week time period): Almost all of the initial chlorine loading was lost | chlorine loss on storage ([1]; fabrics stored in dark environmental conditions, 6 month time period): no significant chlorine loss | Bacterial Reduction (log) E. coli O157:H7 ([2]; contact time 1 min): 5.86 log | Bacterial Reduction (log) E. coli O157:H7 [2, 6]: about 6 log | Bacterial Reduction (log) E. coli O157:H7 ([2]; contact time 5 min): 5.86 log | Bacterial Reduction (log) E. coli O157:H7 ([2]; contact time 10 min): 5.86 log | Bacterial Reduction (log) E. coli O157:H7 ([2]; contact time 30 min): 5.86 log | Bacterial Reduction (log) P. aeruginosa ([3]; contact time 1 min): 6.12 log | Bacterial Reduction (log) P. aeruginosa [3, 6]: about 6 log | Bacterial Reduction (log) P. aeruginosa ([3]; contact time 5 min): 6.12 log | Bacterial Reduction (log) P. aeruginosa ([3]; contact time 10 min): 6.12 log | Bacterial Reduction (log) P. aeruginosa ([3]; contact time 30 min): 6.12 log | Bacterial reduction (log) S. aureus ([4]; contact time 1 min): 3.07 log | Bacterial reduction (log) S. aureus ([4]; contact time 5 min): 6.00 log | Bacterial reduction (log) S. aureus ([4]; contact time 10 min): 6.00 log | Bacterial reduction (log) S. aureus ([4]; contact time 30 min): 6.00 log | Bacterial Reduction (logs) E. coli O157:H7 [5]: 6.5 logs
